pIC50: −log10 of the molar value.

We go through 15 molecules from patent US9376454B2, “Beta-lactamase inhibitors” (priority 2013, dated 2016).

Holding throughout (type): biochemical
Test [1] deals with T1, SHV-5 β-lactamase (Klebsiella pneumoniae, UniProt P0A3M1).
T1 construct: made in house; host or cells: E. coli BL21(DE3)
The experiment in a line: β-Lactamase inhibition enzyme assay, SHV-5. On the procedure: (§1) For SHV-5, Kpc-2, p99AmpC and OXA-1 β-lactamases, E. coli BL21(DE3) bacterial cells carrying expression plasmids (expressed as native untagged proteins) for the individual β-lactamases were grown in 1 L of Superbroth (Teknova Inc. Hollister, Calif.) supplemented with 100 μg/ml kanamycin selection and 1×5052 (0.5% glycerol, 0.05% glucose and 0.2% α-lactose) at 35° C. for 18-20 hours. Cells were harvested by centrifugation (4,000×g, 4° C., 20 min), resuspended in 50 ml of 10 mM HEPES pH 7.5 ( 1/20 of the initial volume). The cells were lysed by sonication (5 pulses of 45 seconds) at 45 W on ice. The lysates were clarified by centrifugation at 10,000×g for 40 minutes at 4° C. Samples were diluted 5-fold in 50 mM sodium acetate pH 5.0, stored overnight at 4° C., after which they were centrifuged at 10,000×g for 30 minutes to clarify, and filtered through 0.45 μm filters. The samples were loaded onto a 5 ml Capto S sepharose cation exchange column (GE Healthcare) pre-equilibrated with 50 mM sodium acetate pH 5.0. The column was washed with 5 column volumes of 50 mM sodium acetate pH 5.0 to wash out unbound protein and a linear gradient of NaCl (0 to 500 mM) was used to elute the protein (over 16 CV) from the column. Fractions were assayed for β-lactamase activity using Centa (Calbiochem, Gibbstown, N.J.) or Nitrocefin (EMD Millipore chemicals, Darmstadt, Germany) as a reporter β-lactamase substrate for activity in the isolated fractions. Active fractions were pooled, concentrated and further purified by gel filtration chromatography on a Superdex 75 prep grade gel filtration column (GE Healthcare, Piscataway, N.J.) pre-equilibrated in 50 mM Hepes pH 7.5, 150 mM NaCl. Active fractions were pooled concentrated, quantitated by BCA protein determination (Thermo Scientific, Rockford, Ill.), dialyzed into PBS and frozen at −80° C. in 20% glycerol until use.
(§2) An equal volume of diluted enzyme stock was added, and the plates were incubated at 37° C. for 15 min. Nitrocefin was used as substrate for p99 AmpC, VIM-2 and OXA-1 and dispensed into each well at a final concentration of 100 μM. Absorbance at 486 nm was immediately monitored for 10 min using a Biotek Powerwave XS2 microplate spectrophotometer using the GEN5 softweare package (Biotek Instruments, Winooski Vt.). In an analogous fashion, imipenem was used as substrate for Kpc-2 and Cefotaxime was used for SHV-5, while changes in absorbance upon hydrolysis of the β-lactam ring were monitored at 300 nm and 260 nm respectively in UV-transparent 96-well microtiter assay plates. Maximum rates of hydrolysis were compared to those in control wells (without inhibitors), and percentages of enzyme inhibition were calculated for each concentration of inhibitor. The concentration of inhibitor needed to reduce the initial rate of hydrolysis of substrate by 50% (IC50) was calculated as the residual activity of β-lactamase at 486 nm using GraFit version 7 kinetics software package (Erithacus Software, Surrey, UK).

The target in test [2] is T2, KPC-2 β-lactamase (Klebsiella pneumoniae, UniProt Q9F663).
T2 construct: made in house; host or cells: E. coli BL21(DE3)
The experiment in a line: β-Lactamase inhibition enzyme assay, KPC-2. Particulars: imipenem as substrate, 300 nm; 15 min at 37° C. with enzyme, PBS pH 7.4; read-out: Class A KPC-2 IC50. The method, then:
as §1, §2

Test [3] deals with T3, VIM-2 metallo β-lactamase (Pseudomonas aeruginosa, UniProt Q9K2N0).
T3 construct: made in house; host or cells: E. coli BL21(DE3)
Description: β-Lactamase inhibition enzyme assay, VIM-2. The conditions noted are these: Nitrocefin 100 μM as substrate, 486 nm; 15 min at 37° C. with enzyme, PBS pH 7.4; read-out: Class B VIM-2 IC50. The method, then: as §1
For Vim-2 metallo β-lactamase, the procedure was identical with the following exceptions, first the protein was not pH adjusted to pH 5 with 50 mM sodium acetate, second, the chromatography step was changed to a 5 ml Q sepharose anion exchange column pre-equilibrated with 50 mM Hepes pH 7.5, and elution of the protein was achieved by a linear gradient of NaCl (0-600 mM). Finally, the VIM-2 purification required a second run (3rd step) on the Q sepharose anion exchange column to achieve acceptable purity (>90%).
as §2

The target in test [4] is T4, p99 AmpC β-lactamase (Enterobacter cloacae, UniProt P05364).
T4 construct: made in house; host or cells: E. coli BL21(DE3)
Description: β-Lactamase inhibition enzyme assay, p99 AmpC. The method, then: as §1, §2

In test [5] the target is T5, OXA-1 β-lactamase (Escherichia coli, UniProt P13661).
T5 construct: made in house; host or cells: E. coli BL21(DE3)
Description: β-Lactamase inhibition enzyme assay, OXA-1. The conditions noted are these: Nitrocefin 100 μM as substrate, 486 nm; 15 min at 37° C. with enzyme, PBS pH 7.4; read-out: Class D OXA-1 IC50. On the procedure: as §1, §2

T1 sequence (P0A3M1 22-286): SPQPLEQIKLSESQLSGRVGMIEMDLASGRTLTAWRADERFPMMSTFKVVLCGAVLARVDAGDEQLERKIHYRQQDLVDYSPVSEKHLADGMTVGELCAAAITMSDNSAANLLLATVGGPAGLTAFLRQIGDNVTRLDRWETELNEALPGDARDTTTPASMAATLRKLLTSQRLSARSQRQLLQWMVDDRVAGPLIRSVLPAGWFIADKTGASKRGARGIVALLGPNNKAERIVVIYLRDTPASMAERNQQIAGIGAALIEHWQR
T5 sequence (P13661 26-276): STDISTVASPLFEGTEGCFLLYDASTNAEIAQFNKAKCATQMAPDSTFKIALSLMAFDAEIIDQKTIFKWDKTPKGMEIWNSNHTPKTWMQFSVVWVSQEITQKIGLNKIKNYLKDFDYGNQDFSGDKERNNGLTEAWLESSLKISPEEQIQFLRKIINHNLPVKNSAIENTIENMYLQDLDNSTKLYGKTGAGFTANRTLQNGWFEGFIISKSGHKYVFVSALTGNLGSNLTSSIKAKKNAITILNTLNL
T2 sequence (Q9F663 25-293, looked up): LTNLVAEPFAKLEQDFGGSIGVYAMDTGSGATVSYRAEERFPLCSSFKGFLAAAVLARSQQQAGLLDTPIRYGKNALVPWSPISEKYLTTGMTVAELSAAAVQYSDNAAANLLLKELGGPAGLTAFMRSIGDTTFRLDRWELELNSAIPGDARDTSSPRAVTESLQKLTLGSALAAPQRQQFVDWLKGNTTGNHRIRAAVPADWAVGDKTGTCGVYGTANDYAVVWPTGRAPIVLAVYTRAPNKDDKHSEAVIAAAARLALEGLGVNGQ
T4 sequence (P05364 21-381): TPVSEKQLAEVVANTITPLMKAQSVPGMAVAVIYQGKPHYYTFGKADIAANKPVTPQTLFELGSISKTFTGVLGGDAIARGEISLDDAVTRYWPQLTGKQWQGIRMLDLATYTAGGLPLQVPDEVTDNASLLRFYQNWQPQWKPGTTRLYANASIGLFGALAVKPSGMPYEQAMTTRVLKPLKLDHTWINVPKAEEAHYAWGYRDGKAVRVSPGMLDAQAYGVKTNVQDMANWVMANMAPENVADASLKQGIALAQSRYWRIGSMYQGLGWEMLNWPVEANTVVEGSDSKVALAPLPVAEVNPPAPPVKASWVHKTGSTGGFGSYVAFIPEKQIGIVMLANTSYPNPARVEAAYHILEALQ

On to `O=C(O)c1cccc2c1OB(O)[C@@H](NC(=O)c1cccc3[nH]ccc13)C2` [Example 32, (R)-2-Hydroxy-3-[(1H-indole-4-carbonyl)-amino]-3,4-dihydro-2H-benzo[e][1,2]oxaborinine-8-carboxylic acid], for which the pIC50 is above 7.00 in test [1]; above 7.00 in test [2]; 6.00 to 7.00 in test [3]; above 7.00 in test [4]; above 7.00 in test [5].

For `O=C1Cc2cc(C(=O)N[C@H]3Cc4cccc(C(=O)O)c4OB3O)ccc2N1` [Example 33, (R)-2-Hydroxy-3-[(2-oxo-2,3-dihydro-1H-indole-5-carbonyl)-amino]-3,4-dihydro-2H-benzo[e][1,2]oxaborinine-8-carboxylic acid], the pIC50 was above 7.00 in test [1]; above 7.00 in test [2]; 6.00 to 7.00 in test [3]; above 7.00 in test [4]; above 7.00 in test [5].

For `O=C(N[C@H]1Cc2cccc(C(=O)O)c2OB1O)c1ccc2nc[nH]c2c1` [Example 34, (R)-3-[(3H-Benzoimidazole-5-carbonyl)-amino]-2-hydroxy-3,4-dihydro-2H-benzo[e][1,2]oxaborinine-8-carboxylic acid], the negative logarithm of the IC50 (pIC50) in test [1] was above 7.00; in test [2], above 7.00; in test [3] it was 6.00 to 7.00; in test [4] it was above 7.00; in test [5], above 7.00.

As for `O=C(N[C@H]1Cc2cccc(C(=O)O)c2OB1O)c1cnc2[nH]ccc2c1` [Example 35, (R)-2-Hydroxy-3-[(1H-pyrrolo[2,3-b]pyridine-5-carbonyl)-amino]-3,4-dihydro-2H-benzo[e][1,2]oxaborinine-8-carboxylic acid], the pIC50 is above 7.00 in test [1]; above 7.00 in test [2]; 6.00 to 7.00 in test [3]; above 7.00 in test [4]; above 7.00 in test [5].

`N=C(N)N1Cc2ccc(CC(=O)N[C@H]3Cc4cccc(C(=O)O)c4OB3O)cc2C1` [Example 37, (3R)-3-[[2-(2-carbamimidoylisoindolin-5-yl)acetyl]amino]-2-hydroxy-3,4-dihydro-1,2-benzoxaborinine-8-carboxylic acid]: the pIC50 in test [1] is above 7.00; in test [2], above 7.00; in test [3], 6.00 to 7.00; in test [4], above 7.00; in test [5], above 7.00.

Consider `O=C(Cc1ccc(O)c(O)c1)N[C@H]1Cc2cccc(C(=O)O)c2OB1O` [Example 38, (R)-3-(2-(3,4-dihydroxyphenyl)acetamido)-2-hydroxy-3,4-dihydro-2H-benzo[e][1,2]oxaborinine-8-carboxylic acid], for which the pIC50 in test [1] was above 7.00; in test [2], above 7.00; in test [3], 6.00 to 7.00; in test [4] it was above 7.00; in test [5], above 7.00.

On to `O=C(N[C@H]1Cc2cccc(C(=O)O)c2OB1O)c1ccc(O)c(O)c1` [Example 39, (R)-3-(3,4-dihydroxybenzamido)-2-hydroxy-3,4-dihydro-2H-benzo[e][1,2]oxaborinine-8-carboxylic acid], for which the pIC50 in test [1] is 6.00 to 7.00; in test [2], above 7.00; in test [3] it was 6.00 to 7.00; in test [4], above 7.00; in test [5] it was above 7.00.

As for `NCCOc1ccc(C(=O)N[C@H]2Cc3cccc(C(=O)O)c3OB2O)cc1O` [Example 40, (R)-3-(4-(2-aminoethoxy)-3-hydroxybenzamido)-2-hydroxy-3,4-dihydro-2H-benzo[e][1,2]oxaborinine-8-carboxylic acid], the negative-log IC50 (pIC50) is 6.00 to 7.00 in test [1]; above 7.00 in test [2]; above 7.00 in test [3]; above 7.00 in test [4]; above 7.00 in test [5].

On to `NCCn1ccc2ccc(C(=O)N[C@H]3Cc4cccc(C(=O)O)c4OB3O)cc21` [Example 41, (R)-3-{[1-(2-Amino-ethyl)-1H-indole-6-carbonyl]-amino}-2-hydroxy-3,4-dihydro-2H-benzo[e][1,2]oxaborinine-8-carboxylic acid], for which the pIC50 in test [1], in test [2], in test [3], in test [4] and in test [5] was above 7.00 each time.

For the molecule `NCCn1ccc2c(C(=O)N[C@H]3Cc4cccc(C(=O)O)c4OB3O)cccc21` [Example 42, (R)-3-{[1-(2-Amino-ethyl)-1H-indole-4-carbonyl]-amino}-2-hydroxy-3,4-dihydro-2H-benzo[e][1,2]oxaborinine-8-carboxylic acid], the negative-log IC50 (pIC50) in test [1] is above 7.00; in test [2], above 7.00; in test [3], 6.00 to 7.00; in test [4], above 7.00; in test [5], above 7.00.

Consider `Cn1ccc2ccc(C(=O)N[C@H]3Cc4cccc(C(=O)O)c4OB3O)cc21` [Example 43, (R)-2-Hydroxy-3-[(1-methyl-1H-indole-6-carbonyl)-amino]-3,4-dihydro-2H-benzo[e][1,2]oxaborinine-8-carboxylic acid], for which the pIC50 was 6.00 to 7.00 in test [1]; above 7.00 in test [2]; 6.00 to 7.00 in test [3]; above 7.00 in test [4]; above 7.00 in test [5].

For the molecule `N=C(N)NCc1cc(CNC(=N)N)cc(C(=O)N[C@H]2Cc3cccc(C(=O)O)c3OB2O)c1` [Example 45, (R)-3-(3,5-bis(guanidinomethyl)benzamido)-2-hydroxy-3,4-dihydro-2H-benzo[e][1,2]oxaborinine-8-carboxylic acid], the pIC50 in test [1] is 6.00 to 7.00; in test [2] it was above 7.00; in test [3], above 7.00; in test [4] it was above 7.00; in test [5], above 7.00.

In the case of `O=C(Cc1ccc2cc[nH]c2c1)N[C@H]1Cc2cccc(C(=O)O)c2OB1O` [Example 46, (R)-2-Hydroxy-3-(2-1H-indol-6-yl-acetylamino)-3,4-dihydro-2H-benzo[e][1,2]oxaborinine-8-carboxylic acid], the negative-log IC50 (pIC50) in test [1], in test [2], in test [3], in test [4] and in test [5] was above 7.00 throughout.

On to `O=C(N[C@H]1Cc2cccc(C(=O)O)c2OB1O)c1ccc(-c2ncc[nH]2)cc1` [Example 47, (R)-2-Hydroxy-3-[4-(1H-imidazol-2-yl)-benzoylamino]-3,4-dihydro-2H-benzo[e][1,2]oxaborinine-8-carboxylic acid], for which the negative-log IC50 (pIC50) in test [1] was above 7.00; in test [2], above 7.00; in test [3], 6.00 to 7.00; in test [4], above 7.00; in test [5], above 7.00.

Take `CN1Cc2ccc(CC(=O)N[C@H]3Cc4cccc(C(=O)O)c4OB3O)cc2C1` [Example 48, (R)-2-Hydroxy-3-[2-(2-methyl-2,3-dihydro-1H-isoindol-5-yl)-acetylamino]-3,4-dihydro-2H-benzo[e][1,2]oxaborinine-8-carboxylic acid]: the pIC50 in test [1], in test [2], in test [3], in test [4] and in test [5] was above 7.00 in each case.
